Measurements taken from ChEMBL document CHEMBL1201862, “PubChem BioAssay data set” (2004).
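Tested at 5 concentrations; 48 h exposure; 96-well plates; endpoints linearly interpolated, else capped at highest concentration. The concentration for 50% growth inhibition is given as GI50.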 The source made the active and inactive calls. No stated cut-off is given here; in the data, active = GI50 up to about 1.1 µM and inactive = higher.

Experiments:
Test in all cases: growth of human tumour cells (NCI), 48 h
786-0 = system: 786-0
A498 = system: A498
A549 = system: A549
ACHN = system: ACHN
BT-549 = system: BT-549
CAKI-1 = system: CAKI-1
CCRF-CEM = system: CCRF-CEM
DU-145 = system: DU-145
EKVX = system: EKVX
HCC 2998 = system: HCC 2998
HCT-116 = system: HCT-116
HCT-15 = system: HCT-15
HL-60 = system: HL-60
HOP-62 = system: HOP-62
HOP-92 = system: HOP-92
HT-29 = system: HT-29
Hs-578T = system: Hs-578T
IGROV-1 = system: IGROV-1
K562 = system: K562
KM12 = system: KM12
LOX IMVI = system: LOX IMVI
M14 = system: M14
MCF7 = system: MCF7
MDA-MB-231 = system: MDA-MB-231
MDA-MB-435 = system: MDA-MB-435
MDA-N = system: MDA-N
MOLT-4 = system: MOLT-4
NCI-H226 = system: NCI-H226
NCI-H23 = system: NCI-H23
NCI-H460 = system: NCI-H460
NCI-H522 = system: NCI-H522
NCI/ADR-RES = system: NCI/ADR-RES
OVCAR-3 = system: OVCAR-3
OVCAR-5 = system: OVCAR-5
OVCAR-8 = system: OVCAR-8
PC-3 = system: PC-3
RPMI-8226 = system: RPMI-8226
RXF 393 = system: RXF 393
SF-268 = system: SF-268
SF-295 = system: SF-295
SF-539 = system: SF-539
SK-MEL-28 = system: SK-MEL-28
SK-MEL-2 = system: SK-MEL-2
SK-MEL-5 = system: SK-MEL-5
SN12C = system: SN12C
SNB-19 = system: SNB-19
SR = system: SR
SW-620 = system: SW-620
T47D = system: T47D
TK-10 = system: TK-10
U-251 = system: U-251
UACC-257 = system: UACC-257
UO-31 = system: UO-31
COLO 205 = system: COLO 205
Malme-3M = system: Malme-3M
OVCAR-4 = system: OVCAR-4
SK-OV-3 = system: SK-OV-3
SNB-75 = system: SNB-75
UACC-62 = system: UACC-62

O=C1/C(=C/c2cccs2)N=C(c2ccccc2)N1c1nc2ccccc2s1
GI50 (786-0): 41.3 µM (inactive) | GI50 (A498): > 100 µM (inactive) | GI50 (A549): 41.5 µM (inactive) | GI50 (ACHN): > 100 µM (inactive) | GI50 (BT-549): 53.3 µM (inactive) | GI50 (CAKI-1): 14 µM (inactive) | GI50 (CCRF-CEM): 0.162 µM (active) | GI50 (DU-145): 67.3 µM (inactive) | GI50 (EKVX): 49.9 µM (inactive) | GI50 (HCC 2998): > 100 µM (inactive) | GI50 (HCT-116): 38.4 µM (inactive) | GI50 (HCT-15): 82.4 µM | GI50 (HL-60): > 100 µM (inactive) | GI50 (HOP-62): > 100 µM (inactive) | GI50 (HOP-92): 26.5 µM (inactive) | GI50 (HT-29): 36.3 µM (inactive) | GI50 (Hs-578T): 14.1 µM (inactive) | GI50 (IGROV-1): 16 µM (inactive) | GI50 (K562): 47.5 µM (inactive) | GI50 (KM12): > 100 µM (inactive) | GI50 (LOX IMVI): > 100 µM (inactive) | GI50 (M14): > 100 µM (inactive) | GI50 (MCF7): 49.9 µM (inactive) | GI50 (MDA-MB-231): > 100 µM (inactive) | GI50 (MDA-MB-435): > 100 µM (inactive) | GI50 (MDA-N): 91.6 µM (inactive) | GI50 (MOLT-4): 11.7 µM (inactive) | GI50 (NCI-H226): > 100 µM (inactive) | GI50 (NCI-H23): > 100 µM (inactive) | GI50 (NCI-H460): 68.5 µM (inactive) | GI50 (NCI-H522): 4.14 µM (inactive) | GI50 (NCI/ADR-RES): 64.4 µM (inactive) | GI50 (OVCAR-3): > 100 µM (inactive) | GI50 (OVCAR-5): > 100 µM (inactive) | GI50 (OVCAR-8): 62.1 µM (inactive) | GI50 (PC-3): > 100 µM (inactive) | GI50 (RPMI-8226): 7.45 µM (inactive) | GI50 (RXF 393): 33.3 µM (inactive) | GI50 (SF-268): 7.74 µM (inactive) | GI50 (SF-295): > 100 µM (inactive) | GI50 (SF-539): > 100 µM (inactive) | GI50 (SK-MEL-28): > 100 µM (inactive) | GI50 (SK-MEL-2): > 100 µM (inactive) | GI50 (SK-MEL-5): > 100 µM (inactive) | GI50 (SN12C): > 100 µM (inactive) | GI50 (SNB-19): > 100 µM (inactive) | GI50 (SR): 33.6 µM (inactive) | GI50 (SW-620): 86.9 µM (inactive) | GI50 (T47D): 57.3 µM (inactive) | GI50 (TK-10): > 100 µM (inactive) | GI50 (U-251): 95.1 µM (inactive) | GI50 (UACC-257): > 100 µM (inactive) | GI50 (UO-31): 24.2 µM (inactive)

COc1ccc2[nH]c3c(c2c1)CC(=O)N1CCC[C@H](C1)CC31OCCCO1
GI50 (786-0): > 100 µM (inactive) | GI50 (A498): > 100 µM (inactive) | GI50 (A549): > 100 µM (inactive) | GI50 (ACHN): > 100 µM (inactive) | GI50 (BT-549): > 100 µM (inactive) | GI50 (CAKI-1): > 100 µM (inactive) | GI50 (CCRF-CEM): 64.6 µM (inactive) | GI50 (COLO 205): > 100 µM (inactive) | GI50 (DU-145): > 100 µM (inactive) | GI50 (EKVX): > 100 µM (inactive) | GI50 (HCC 2998): > 100 µM (inactive) | GI50 (HCT-116): > 100 µM (inactive) | GI50 (HCT-15): > 100 µM | GI50 (HOP-62): > 100 µM (inactive) | GI50 (HOP-92): 55 µM (inactive) | GI50 (HT-29): > 100 µM (inactive) | GI50 (Hs-578T): 86.7 µM (inactive) | GI50 (IGROV-1): 92.7 µM (inactive) | GI50 (KM12): > 100 µM (inactive) | GI50 (M14): > 100 µM (inactive) | GI50 (MCF7): > 100 µM (inactive) | GI50 (MDA-MB-231): > 100 µM (inactive) | GI50 (MDA-MB-435): > 100 µM (inactive) | GI50 (MDA-N): > 100 µM (inactive) | GI50 (Malme-3M): > 100 µM (inactive) | GI50 (NCI-H226): > 100 µM (inactive) | GI50 (NCI-H23): > 100 µM (inactive) | GI50 (NCI-H460): > 100 µM (inactive) | GI50 (NCI/ADR-RES): > 100 µM (inactive) | GI50 (OVCAR-3): > 100 µM (inactive) | GI50 (OVCAR-4): > 100 µM (inactive) | GI50 (OVCAR-5): > 100 µM (inactive) | GI50 (OVCAR-8): > 100 µM (inactive) | GI50 (PC-3): > 100 µM (inactive) | GI50 (RPMI-8226): > 100 µM (inactive) | GI50 (RXF 393): 44.5 µM (inactive) | GI50 (SF-268): > 100 µM (inactive) | GI50 (SF-295): > 100 µM (inactive) | GI50 (SK-MEL-28): > 100 µM (inactive) | GI50 (SK-MEL-2): > 100 µM (inactive) | GI50 (SK-MEL-5): > 100 µM (inactive) | GI50 (SK-OV-3): > 100 µM (inactive) | GI50 (SN12C): > 100 µM (inactive) | GI50 (SNB-19): > 100 µM (inactive) | GI50 (SNB-75): 86.9 µM (inactive) | GI50 (SR): > 100 µM (inactive) | GI50 (SW-620): > 100 µM (inactive) | GI50 (T47D): > 100 µM (inactive) | GI50 (TK-10): > 100 µM (inactive) | GI50 (U-251): > 100 µM (inactive) | GI50 (UACC-257): > 100 µM (inactive) | GI50 (UACC-62): 77.1 µM (inactive) | GI50 (UO-31): > 100 µM (inactive)

Cc1nc2ccccc2nc1N1CCCC1
GI50 (786-0): > 100 µM (inactive) | GI50 (A498): > 100 µM (inactive) | GI50 (A549): > 100 µM (inactive) | GI50 (ACHN): > 100 µM (inactive) | GI50 (BT-549): > 100 µM (inactive) | GI50 (CAKI-1): > 100 µM (inactive) | GI50 (COLO 205): > 100 µM (inactive) | GI50 (DU-145): > 100 µM (inactive) | GI50 (EKVX): 34.2 µM (inactive) | GI50 (HCC 2998): > 100 µM (inactive) | GI50 (HCT-116): > 100 µM (inactive) | GI50 (HCT-15): > 100 µM | GI50 (HOP-62): > 100 µM (inactive) | GI50 (HOP-92): > 100 µM (inactive) | GI50 (HT-29): > 100 µM (inactive) | GI50 (Hs-578T): > 100 µM (inactive) | GI50 (IGROV-1): > 100 µM (inactive) | GI50 (K562): > 100 µM (inactive) | GI50 (KM12): > 100 µM (inactive) | GI50 (LOX IMVI): > 100 µM (inactive) | GI50 (M14): > 100 µM (inactive) | GI50 (MCF7): > 100 µM (inactive) | GI50 (MDA-MB-231): > 100 µM (inactive) | GI50 (MDA-MB-435): > 100 µM (inactive) | GI50 (MDA-N): > 100 µM (inactive) | GI50 (Malme-3M): > 100 µM (inactive) | GI50 (NCI-H226): > 100 µM (inactive) | GI50 (NCI-H23): > 100 µM (inactive) | GI50 (NCI-H460): > 100 µM (inactive) | GI50 (NCI-H522): > 100 µM (inactive) | GI50 (NCI/ADR-RES): > 100 µM (inactive) | GI50 (OVCAR-4): > 100 µM (inactive) | GI50 (OVCAR-5): > 100 µM (inactive) | GI50 (OVCAR-8): > 100 µM (inactive) | GI50 (PC-3): > 100 µM (inactive) | GI50 (RPMI-8226): > 100 µM (inactive) | GI50 (RXF 393): > 100 µM (inactive) | GI50 (SF-268): > 100 µM (inactive) | GI50 (SF-295): > 100 µM (inactive) | GI50 (SK-MEL-28): > 100 µM (inactive) | GI50 (SK-MEL-2): > 100 µM (inactive) | GI50 (SK-MEL-5): > 100 µM (inactive) | GI50 (SK-OV-3): > 100 µM (inactive) | GI50 (SN12C): > 100 µM (inactive) | GI50 (SNB-19): > 100 µM (inactive) | GI50 (SNB-75): 68.2 µM (inactive) | GI50 (SR): > 100 µM (inactive) | GI50 (SW-620): > 100 µM (inactive) | GI50 (T47D): > 100 µM (inactive) | GI50 (TK-10): > 100 µM (inactive) | GI50 (U-251): > 100 µM (inactive) | GI50 (UACC-257): > 100 µM (inactive) | GI50 (UACC-62): > 100 µM (inactive)
